In patent publication US20090258850A1, “STABILIZED THERAPEUTIC COMPOSITIONS AND FORMULATIONS” (priority 2007, published 2009):

Columns and labels:
[1] = system: rhesus monkeys subjected to 6 Gy TBI; conditions: in vivo
[2] = system: immature repopulating cells in bone marrow of BALB/c donor mice; experiment: Immature repopulating cell subsets (CFU-S day 12, MRA day 13) after fractionated 3x2 Gy TBI of BALB/c donor mice; assay type: in vivo; conditions: fractionated 3×2 Gy TBI; for increase in CFU-S day 12 relative to radiation controls: 40 mg/Kg/d 5-AED IM, 0.7 μg TPO IP after each fraction
Description: (§1) Combination Treatment with androst-5-ene-3β,17β-diol formulation and TPO. For direct measurements of the radioprotective effect of 5-AED, BALB/c mice were exposed to a midlethal dose of 6 Gy TBI. Two hours after TBI, mice were injected IM with 40 mg/kg 5-AED or the carrier as placebo, with or without 0.225 μg TPO or 10 μg Peg-G-CSF IP. Radioprotective effects of 5-AED on immature repopulating cell subsets were assessed by exposing BALB/c donor mice to 3 fractions of 2 Gy TBI, separated by 24 hours, and treatment with 40 mg/Kg/d 5-AED or the carrier IM, or 0.7 μg TPO IP after each fraction or a single injection of 10 μg Peg-G-CSF IP after the first fraction. Twenty four hours after the last fraction, bone marrow of donor mice was examined for immature cell content per femur using the marrow repopulating ability (MRA day 13) assay and the CFU-S day 12 after transplantation in 8 Gy irradiated mice.

[3] = system: BALB/c mice exposed to 6 Gy TBI; experiment: Radioprotective effect in BALB/c mice after midlethal 6 Gy TBI; assay type: in vivo
Description: as §1

non-irradiated monkeys = conditions: 15 mg/Kg/d i.m. x5 days, no TBI
Description: Primates used in this study were purpose bred rhesus monkeys (Macaca Mulatta), weighing 2.5 to 4.0 Kg each and aged 2 to 3 years. 5-Androstene-3β,17β-diol (5-AED), prepared as a 100 mg/mL aqueous suspension using 7.4 mM sodium phosphate buffer, pH 6.0, containing 0.5% polysorbate 80, 0.02% benzalkonium chloride and 4.8% mannitol and its vehicle, consisting of the identical formulation without 5-AED, was administered intramuscularly (i.m.) at a dose of 15 mg/kg/d (150 μL/Kg/d), for 5 consecutive days. […] 5-AED and vehicle were administered by deep intramuscular injections into alternating left and right m. vastus lateralis. In the second study, 10 animals (3 males and 2 females in each group) received either 15 mg/Kg/d (150 μL/Kg/d), 5-AED in a stabilized formulation or vehicle for 5 consecutive days, but were not subjected to TBI.
Clinical pathology was conducted as follows: Bone marrow was aspirated under neurolept anesthesia using Ketalar (Apharmo, Arnhem, the Netherlands) and Domitor (Pfizer, Capelle a/d lJssel, The Netherlands). Small bone marrow aspirates for analytical purposes were taken from the shafts of the femurs or humeri using pediatric spinal needles and collected in bottles containing 2 mL HEPES buffered Hanks' balanced salt solution (HBBS) with 200 IU sodium heparin/mL (Leo Pharmaceutical Products, Weesp, the Netherlands). Low-density cells were isolated using Lymphoprep (density 1.077, Fresenius, Oslo, Norway) separation. Cells were plated in 35-mm dishes (Falcon 1008, Becton Dickinson, Leiden, The Netherlands) in 1 mL enriched Dulbecco's medium containing 0.8% methylcellulose, 5% FCS, and additives. […] Colony counts were calculated per mL of bone marrow aspirated using the recovery of cells over the Ficoll density gradient. […] Complete blood cell counts were measured daily using an ABC-vet animal blood counter (Scil, ABX diagnostics, Montpellier, France). […] Measurements were done using a FACSCalibur (Becton Dickinson, Leiden, The Netherlands) and 50,000 events were collected in duplicate and analyzed using the CellQuest (Becton Dickinson) software. […]

Molecule: C[C@]12CC[C@H]3[C@@H](CC=C4C[C@@H](O)CC[C@@]43C)[C@@H]1CC[C@@H]2O [5-AED, androst-5-ene-3β,17β-diol]
- bone marrow cellularity [1]: 8.7±5.3 ×10^6 cells/mL bone marrow aspirate
- day reticulocytes reached levels >0.05×10^9/mL in peripheral blood [1]: 19.0±1.1 day
- direct local or systemic toxic effects [1]: not observed
- edema [1]: transient edema, which resolved without sequela
- increase in body weight due to fluid retention [1]: up to 13.6%
- increase of CD34+ cells in BM in comparison to HERF-418 treated monkeys [1]: 90 fold
- neutrophil recovery [1]: accelerated neutrophil recovery
- reduction of the period of leukopenia [1]: 4 days
- shortening of the time to transfusion-independence [1]: 4 days
- transfusions needed to maintain platelets levels of >40×10^6/mL [1]: 1.3±0.5
- increase in CFU-S day 12 relative to radiation controls [2]: 5 fold
- MRA, expressed as GM-CFU per femur at 13 days after transplantation ([2]; 40 mg/Kg/d IM, range 0-5785): 1002 colonies
- multilineage recovery (white blood cells, platelets, red blood cells, bone marrow cellularity, colony forming cells) ([3]; 40 mg/kg IM 2 hours after 6 Gy TBI, 14 days post-TBI vs placebo): accelerated multilineage recovery
- effect of increasing the dose on multilineage recovery ([3]; dose up to 200 mg/kg): did not augment this effect
- day of maximum neutrophilic granulocyte increase after initiation of the treatment (non-irradiated monkeys): 2 days
- effect on other hematopoietic lineages, bone marrow cellularity and progenitor cell content (non-irradiated monkeys): did not affect
- increase from baseline levels in neutrophilic granulocytes in the peripheral blood (non-irradiated monkeys; n=5): 3.6 fold

B1: Peg-G-CSF: Peg-G-CSF injected IP in mice (protein, UniProt P09919 31-207, looked up)
Granulocyte …: TPLGPASSLPQSFLLKCLEQVRKIQGDGAALQEKLVSECATYKLCHPEELVLLGHSLGIPWAPLSSCPSQALQLAGCLSQLHSGLFLYQGLLQALEGISPELGPTLDTLQLDVADFATTIWQQMEELGMAPALQPTQGAMPAFASAFQRRAGGVLVASHLQSFLEVSYRVLRHLAQP
modifications: PEGylated
notes: Peg-G-CSF injected IP in mice
- effect on CFU-S day 12 ([2]; single injection 10 μg Peg-G-CSF IP after first fraction): did not affect

B2: TPO: TPO injected IP in mice; promotes CFU-S reconstitution (protein, UniProt P40226 22-356, looked up)
Thrombopoietin: SPVAPACDPRLLNKLLRDSHLLHSRLSQCPDVDPLSIPVLLPAVDFSLGEWKTQTEQSKAQDILGAVSLLLEGVMAARGQLEPSCLSSLLGQLSGQVRLLLGALQGLLGTQLPLQGRTTAHKDPNALFLSLQQLLRGKVRFLLLVEGPTLCVRRTLPTTAVPSSTSQLLTLNKFPNRTSGLLETNFSVTARTAGPGLLSRLQGFRVKITPGQLNQTSRSPVQISGYLNRTHGPVNGTHGLFAGTSLQTLEASDISPGAFNKGSLAFNLQGGLPPSPSLAPDGHTPFPPSPALPTTHGSPPQLHPLFPDPSTTMPNSTAPHPVTMYPHPRNLSQET
- increase in CFU-S day 12 relative to radiation controls [2]: 7 fold
